Test results from patent US20240270740A1, “INHIBITORS OF CYCLIC GMP-AMP SYNTHASE AND USES THEREOF” (Ventus Therapeutics U.S., Inc., priority 2022, published 2024).

molecular target: hcGAS (Homo sapiens, UniProt Q8N884); assay: hcGAS LCMS assay (direct measurement of cGAMP production); assay type: biochemical; details: 0.5 nM hcGAS, 100 μM ATP, 100 μM GTP, 25 nM dsDNA, 4 h incubation
Procedure: cGAS catalyzes the cyclization of ATP and GTP to produce cGAMP, which is the activating ligand of STING. Human cGAS (hcGAS) inhibition can thus be quantified by measuring how much cGAMP is formed either indirectly, by monitoring ATP-depletion as in the hcGAS Kinase-Glo assay (as described below), or directly, such as using the hcGAS LCMS assay (as described below).
Compounds were tested for their h-cGAS inhibition activity using direct measurement of cGAMP production by LC/MS. Briefly, compounds were incubated with enzyme and substrates for 4 hours (see Table C), before the reaction was stopped with 3 volumes of 70/30 Acetonitrile/H2O mix containing 0.15 mM cGAMP-^13C10^5N5 as internal standard and mixed for […]. After centrifugation (3700 rpm, 10 min, 10° Celsius), […] of each reaction was collected and mixed to equal volume of Acetonitrile. Samples were then analyzed on Qexective (Column: XBridge BEH Amide Column, 130 Å, 3.5 μm, 3 mm×50 mm, Mobile phase A: 10 mM Ammonium acetate in 95/5% H2O/Acetonitrile (0.5% DMSO), Mobile phase B: Acetonitrile (0.5% DMSO).
The results of the assay, expressed as IC50 values, are reported in Table D with the following designations: A represents an IC50 value<0.005 μM; B represents an IC50 value≥0.005 μM and <0.02 μM, C represents an IC50 value≥0.02 μM and <0.06 μM; D represents an IC50 value≥0.06 and <0.2 μM; E represents an IC50 value≥0.2.

Sequence of hcGAS (Q8N884 whole entry): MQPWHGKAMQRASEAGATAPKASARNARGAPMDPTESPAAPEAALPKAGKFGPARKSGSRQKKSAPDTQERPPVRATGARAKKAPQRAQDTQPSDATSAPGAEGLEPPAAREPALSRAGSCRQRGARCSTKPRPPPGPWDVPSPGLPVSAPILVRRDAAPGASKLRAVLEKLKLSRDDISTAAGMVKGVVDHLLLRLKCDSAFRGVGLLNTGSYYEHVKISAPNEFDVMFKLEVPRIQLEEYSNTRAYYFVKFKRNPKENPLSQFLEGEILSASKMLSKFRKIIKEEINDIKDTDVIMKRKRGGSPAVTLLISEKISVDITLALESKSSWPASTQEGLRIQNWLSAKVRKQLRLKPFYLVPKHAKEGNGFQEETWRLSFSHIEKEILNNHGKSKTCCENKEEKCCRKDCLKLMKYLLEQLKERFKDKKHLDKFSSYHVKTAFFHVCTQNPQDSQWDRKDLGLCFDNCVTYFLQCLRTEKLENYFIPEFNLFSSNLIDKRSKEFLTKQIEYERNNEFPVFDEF

| IC50 [µM] | SMILES |
| --- | --- |
| 0.005 to 0.02 | COc1c(NC23CC(O)(C2)C3)cc(C(=O)Nc2nnc(-n3nccc3C)s2)oc1=O [Compound 126, 4-((3-hydroxybicyclo[1.1.1]pentan-1-yl)amino)-3-methoxy-N-(5-(5-methyl-1H-pyrazol-1-yl)-1,3,4-thiadiazol-2-yl)-2-oxo-2H-pyran-6-carboxamide] |
| < 0.005 | COC[C@@H](C)Nc1cc(C(=O)Nc2nnc(-c3c(Cl)ccn3C)s2)oc(=O)c1OC [Compound 128, (R)-N-(5-(3-chloro-1-methyl-1H-pyrrol-2-yl)-1,3,4-thiadiazol-2-yl)-3-methoxy-4-((1-methoxypropan-2-yl)amino)-2-oxo-2H-pyran-6-carboxamide] |
| 0.02 to 0.06 | COCCNc1cc(C(=O)Nc2nnc(-c3ccsc3Cl)s2)oc(=O)c1OC [Compound 135, N-(5-(2-chlorothiophen-3-yl)-1,3,4-thiadiazol-2-yl)-3-methoxy-4-((2-methoxyethyl)amino)-2-oxo-2H-pyran-6-carboxamide] |
| ≥ 0.2 | COCCNc1cc(C(=O)Nc2nnc(-c3cscc3C#N)s2)oc(=O)c1OC [Compound 138, N-[5-(4-cyanothiophen-3-yl)-1,3,4-thiadiazol-2-yl]-5-methoxy-4-[(2-methoxyethyl)amino]-6-oxopyran-2-carboxamide] |
| 0.06 to 0.2 | COCCNc1cc(C(=O)Nc2nnc(-c3c(C#N)csc3C)s2)oc(=O)c1OC [Compound 140, N-(5-(4-cyano-2-methylthiophen-3-yl)-1,3,4-thiadiazol-2-yl)-3-methoxy-4-((2-methoxyethyl)amino)-2-oxo-2H-pyran-6-carboxamide] |
| 0.02 to 0.06 | COC[C@@H](C)Nc1cc(C(=O)Nc2nnc(-n3nccc3CO)s2)oc(=O)c1OC [Compound 142, (R)—N-(5-(5-(hydroxymethyl)-1H-pyrazol-1-yl)-1,3,4-thiadiazol-2-yl)-3-methoxy-4-((1-methoxypropan-2-yl)amino)-2-oxo-2H-pyran-6-carboxamide] |
| 0.02 to 0.06 | COCC(COC)Nc1cc(C(=O)Nc2nnc(-n3nccc3CO)s2)oc(=O)c1OC [Compound 143, 4-((1,3-dimethoxypropan-2-yl)amino)-N-(5-(5-(hydroxymethyl)-1H-pyrazol-1-yl)-1,3,4-thiadiazol-2-yl)-3-methoxy-2-oxo-2H-pyran-6-carboxamide] |
| ≥ 0.2 | COCCNc1cc(C(=O)Nc2nnc(-c3sccc3C#N)s2)oc(=O)c1OC [Compound 145, N-(5-(3-cyanothiophen-2-yl)-1,3,4-thiadiazol-2-yl)-3-methoxy-4-((2-methoxyethyl)amino)-2-oxo-2H-pyran-6-carboxamide] |
| 0.005 to 0.02 | COCC(C)(C)COc1c(NC23CC(C2)C3)cc(C(=O)Nc2nnc(-n3nccc3C)s2)oc1=O [Compound 149, 4-(bicyclo[1,1,1]pentan-1-ylamino)-(3-methoxy-2,2-dimethylpropoxy)-N-(5-(5-methyl-1H-pyrazol-1-yl)-1,3,4-thiadiazol-2-yl)-2-oxo-2H-pyran-6-carboxamide] |
| 0.005 to 0.02 | COc1c(N2CC[C@@H](OC)C2=O)cc(C(=O)Nc2nnc(-n3nccc3C)s2)oc1=O [Compound 150, (R)-3-methoxy-4-(3-methoxy-2-oxopyrrolidin-1-yl)-N-(5-(5-methyl-1H-pyrazol-1-yl)-1,3,4-thiadiazol-2-yl)-2-oxo-2H-pyran-6-carboxamide] |
| 0.005 to 0.02 | COc1c(N2CC[C@H](OC)C2=O)cc(C(=O)Nc2nnc(-n3nccc3C)s2)oc1=O [Compound 151, 5-methoxy-4-[(3S)-3-methoxy-2-oxopyrrolidin-1-yl]-N-[5-(5-methylpyrazol-1-yl)-1,3,4-thiadiazol-2-yl]-6-oxopyran-2-carboxamide] |
| 0.005 to 0.02 | COCC1(Nc2cc(C(=O)Nc3nnc(-n4nccc4C)s3)oc(=O)c2OC)CCCC1 [Compound 152, 3-methoxy-4-((1-(methoxymethyl)cyclopentyl)amino)-N-(5-(5-methyl-1H-pyrazol-1-yl)-1,3,4-thiadiazol-2-yl)-2-oxo-2H-pyran-6-carboxamide] |
| 0.02 to 0.06 | COc1c(N2C[C@H](OC)CC2=O)cc(C(=O)Nc2nnc(-n3nccc3C)s2)oc1=O [Compound 154, (R)-3-methoxy-4-(4-methoxy-2-oxopyrrolidin-1-yl)-N-(5-(5-methyl-1H-pyrazol-1-yl)-1,3,4-thiadiazol-2-yl)-2-oxo-2H-pyran-6-carboxamide] |
| 0.005 to 0.02 | COc1c(N2C[C@@H](OC)CC2=O)cc(C(=O)Nc2nnc(-n3nccc3C)s2)oc1=O [Compound 155, (S)-3-methoxy-4-(4-methoxy-2-oxopyrrolidin-1-yl)-N-(5-(5-methyl-1H-pyrazol-1-yl)-1,3,4-thiadiazol-2-yl)-2-oxo-2H-pyran-6-carboxamide] |
| 0.06 to 0.2 | COCCNc1cc(C(=O)Nc2nnc(-c3c(Cl)nsc3Cl)s2)oc(=O)c1OC [Compound 156, N-(5-(3,5-dichloroisothiazol-4-yl)-1,3,4-thiadiazol-2-yl)-3-methoxy-4-((2-methoxyethyl)amino)-2-oxo-2H-pyran-6-carboxamide] |
| 0.005 to 0.02 | COc1c(N[C@H]2COC[C@H]2OC)cc(C(=O)Nc2nnc(-n3nccc3C)s2)oc1=O [Compound 160, 3-Methoxy-4-(((3S,4S)-4-methoxytetrahydrofuran-3-yl)amino)-N-(5-(5-methyl-1H-pyrazol-1-yl)-1,3,4-thiadiazol-2-yl)-2-oxo-2H-pyran-6-carboxamide] |
| < 0.005 | COc1c(N[C@H](C)[C@@H](C)OC)cc(C(=O)Nc2nnc(-n3nccc3C)s2)oc1=O [Compound 161, 5-methoxy-4-{[(2R,3R)-3-methoxybutan-2-yl]amino}-N-[5-(5-methylpyrazol-1-yl)-1,3,4-thiadiazol-2-yl]-6-oxopyran-2-carboxamide] |
| 0.005 to 0.02 | COc1c(N[C@@H]2COC[C@@H]2OC)cc(C(=O)Nc2nnc(-n3nccc3C)s2)oc1=O [Compound 162, 5-methoxy-4-{[(3R,4R)-4-methoxyoxolan-3-yl]amino}-N-[5-(5-methylpyrazol-1-yl)-1,3,4-thiadiazol-2-yl]-6-oxopyran-2-carboxamide] |
| 0.06 to 0.2 | COc1c(N[C@@H](C)[C@H](C)OC)cc(C(=O)Nc2nnc(-n3nccc3C)s2)oc1=O [Compound 163] |
| 0.06 to 0.2 | COC[C@H](Cc1ccccc1)Nc1cc(C(=O)Nc2nnc(-n3nccc3C)s2)oc(=O)c1OC [Compound 165, (S)-3-methoxy-4-((1-methoxy-3-phenylpropan-2-yl)amino)-N-(5-(5-methyl-1H-pyrazol-1-yl)-1,3,4-thiadiazol-2-yl)-2-oxo-2H-pyran-6-carboxamide] |
| < 0.005 | COc1c(N[C@H](C)[C@H](C)OC)cc(C(=O)Nc2nnc(-n3nccc3C)s2)oc1=O [Compound 166, 3-methoxy-4-(((2R,3S)-3-methoxybutan-2-yl)amino)-N-(5-(5-methyl-1H-pyrazol-1-yl)-1,3,4-thiadiazol-2-yl)-2-oxo-2H-pyran-6-carboxamide] |
| 0.06 to 0.2 | COc1c(NCCOC2CC2)cc(C(=O)Nc2nnc(-n3nccc3C)s2)oc1=O [Compound 168, 4-((2-cyclopropoxyethyl)amino)-3-methoxy-N-(5-(5-methyl-1H-pyrazol-1-yl)-1,3,4-thiadiazol-2-yl)-2-oxo-2H-pyran-6-carboxamide] |
| ≥ 0.2 | COc1c(NCCO[C@@H]2CCOC2)cc(C(=O)Nc2nnc(-n3nccc3C)s2)oc1=O [Compound 169, 5-methoxy-N-[5-(5-methylpyrazol-1-yl)-1,3,4-thiadiazol-2-yl]-6-oxo-4-({2-[(3R)-oxolan-3-yloxy]ethyl}amino)pyran-2-carboxamide] |
| 0.005 to 0.02 | COC[C@@H](Cc1ccccc1)Nc1cc(C(=O)Nc2nnc(-n3nccc3C)s2)oc(=O)c1OC [Compound 170, (R)-3-methoxy-4-((1-methoxy-3-phenylpropan-2-yl)amino)-N-(5-(5-methyl-1H-pyrazol-1-yl)-1,3,4-thiadiazol-2-yl)-2-oxo-2H-pyran-6-carboxamide] |
| 0.005 to 0.02 | COc1c(N[C@@H]2CCC[C@@H]2OCC(F)F)cc(C(=O)Nc2nnc(-n3nccc3C)s2)oc1=O [Compound 171, 4-(((1R, 2S)-2-(2,2-difluoroethoxy)cyclopentyl)amino)-3-methoxy-N-(5-(5-methyl-1H-pyrazol-1-yl)-1,3,4-thiadiazol-2-yl)-2-oxo-2H-pyran-6-carboxamide] |
| 0.02 to 0.06 | COc1c(N2CCC[C@@H]2CC#N)cc(C(=O)Nc2nnc(-n3nccc3C)s2)oc1=O [Compound 174, (R)-4-(2-(cyanomethyl)pyrrolidin-1-yl)-3-methoxy-N-(5-(5-methyl-1H-pyrazol-1-yl)-1,3,4-thiadiazol-2-yl)-2-oxo-2H-pyran-6-carboxamide] |
| 0.005 to 0.02 | COc1c(N2CCC[C@H]2CC#N)cc(C(=O)Nc2nnc(-n3nccc3C)s2)oc1=O [Compound 175, (S)-4-(2-(cyanomethyl)pyrrolidin-1-yl)-3-methoxy-N-(5-(5-methyl-1H-pyrazol-1-yl)-1,3,4-thiadiazol-2-yl)-2-oxo-2H-pyran-6-carboxamide] |
| < 0.005 | Nc1ccnn1-c1nnc(NC(=O)c2cc(NC34CC(C3)C4)c(OCCO)c(=O)o2)s1 [Compound 177, N-(5-(5-amino-1H-pyrazol-1-yl)-1,3,4-thiadiazol-2-yl)-4-(bicyclo[1.1.1]pentan-1-ylamino)-3-(2-hydroxyethoxy)-2-oxo-2H-pyran-6-carboxamide] |
